Assay results from US20070219767A1, “ATOMIC COORDINATES OF ALBUMIN DRUG COMPLEXES AND METHOD OF USE OF PHARMACEUTICAL DEVELOPMENT” (priority 2003, published 2007).
“Also recorded” adds a separate entry of the source.

Target: T1, human serum albumin (Homo sapiens, UniProt P02768)
T1 sequence (P02768 25-609): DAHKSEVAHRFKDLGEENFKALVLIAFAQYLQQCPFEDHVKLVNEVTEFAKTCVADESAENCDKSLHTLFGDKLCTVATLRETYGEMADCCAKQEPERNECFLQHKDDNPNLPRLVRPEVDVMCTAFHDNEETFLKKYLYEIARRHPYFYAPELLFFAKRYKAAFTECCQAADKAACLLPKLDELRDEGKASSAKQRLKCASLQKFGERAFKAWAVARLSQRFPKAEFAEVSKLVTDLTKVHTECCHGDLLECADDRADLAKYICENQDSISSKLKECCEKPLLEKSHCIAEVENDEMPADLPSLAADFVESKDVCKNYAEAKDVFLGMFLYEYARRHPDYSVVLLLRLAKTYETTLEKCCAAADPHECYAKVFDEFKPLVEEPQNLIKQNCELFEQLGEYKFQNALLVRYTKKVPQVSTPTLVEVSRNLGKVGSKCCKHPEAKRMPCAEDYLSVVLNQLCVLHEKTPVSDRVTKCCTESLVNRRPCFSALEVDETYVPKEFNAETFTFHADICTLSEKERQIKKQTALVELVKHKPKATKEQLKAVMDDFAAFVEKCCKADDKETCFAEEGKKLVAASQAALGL
Test: X-ray crystallography of human serum albumin/drug complexes: binding location
Design: Domain I (1 through 192); Domain II (193 through 395);Domain III (396 THROUGH 585)
Settings: not given
Source text: This information was derived from crystallization of the protein/ligand to create a protein/ligand complex and determining the atomic structure of the resulting complex by x-ray diffraction. The ligand may be any ligand capable of binding to the human serum albumin protein, and is preferably a ligand that binds to one of the binding sites described herein.
One method of obtaining information regarding the structural; characteristics of the albumin binding regions is through protein crystallization processes.
By applying standard crystallization protocols to the above described crystallizable compositions, crystals of the human serum albumin complex may be obtained. This, an even further aspect of this invention relates to a method of preparing human serum albumin complex-containing crystals. The method comprises the steps of • (a) obtaining a crystallizable composition comprising a human serum albumin protein, divalent cations, and a ligand capable of binding to the protein, and • (b) subjecting the composition of step (a) to conditions which promote crystallization.
The “active site binding pockets” or “active site” of human serum albumin refers to one of several areas determined experimentally on the human serum albumin protein surface where substrates bind.
For Cc1noc(NS(=O)(=O)c2ccc(N)cc2)c1C [Sulfisoxazole], the “Binding site of the Drug-Albumin Complex (site heading the list of contacting residues)” value (“Binding site of the Drug-Albumin Complex” for short) was “Site IB, L115, V116, R117, P118, M123, Y138, I142, Y161, L182,”.

Same assay, conditions: Table I, Phase I; subdomain of HSA where the drug is found in the crystal complex
In the case of CC(NC(C)(C)C)C(=O)c1cccc(Cl)c1 (stereo not shown) [Bupropion], the “Albumin Binding Location” value is reported as “IIA, IIIA”. With CCCNC(=O)NS(=O)(=O)c1ccc(Cl)cc1 [Chlorpropamide] the “Albumin Binding Location” value was “IIA, IIIA”. In the case of CCCCC(=O)O[C@H]1CC[C@H]2[C@@H]3CCc4cc(O)ccc4[C@H]3CC[C@]12C [Estradiol Valerate], the “Albumin Binding Location” value is reported as “IIA”. For CC[C@H](C)C(=O)O[C@H]1C[C@@H](C)C=C2C=C[C@H](C)[C@H](CC[C@@H]3C[C@@H](O)CC(=O)O3)[C@H]21 [Lovastatin], the “Albumin Binding Location” value was “IIA”. In the case of CN1C(CCl)Nc2cc(Cl)c(S(N)(=O)=O)cc2S1(=O)=O (stereo not shown) [Methayclothiazide], the “Albumin Binding Location” value is reported as “IIA-IIB”. With CCc1nn(CCCN2CCN(c3cccc(Cl)c3)CC2)c(=O)n1CCOc1ccccc1 [Nefazodone] the “Albumin Binding Location” value was “IIIA”. In the case of CC1(C)S[C@@H]2[C@H](NC(=O)COc3ccccc3)C(=O)N2[C@H]1C(=O)O [Penicillin V], the “Albumin Binding Location” value is reported as “IIA”. For O=C1NC(=O)C(c2ccccc2)(c2ccccc2)N1 [Phenytoin], the “Albumin Binding Location” value was “IIA”. In the case of C[C@]12C=CC(=O)C=C1CC[C@@H]1[C@@H]2C(=O)C[C@@]2(C)[C@H]1CC[C@]2(O)C(=O)CO [Prednisone], the “Albumin Binding Location” value is reported as “IIA”. In the case of CN(C/C=C/C#CC(C)(C)C)Cc1cccc2ccccc12 [Terbinafine], the “Albumin Binding Location” value is reported as “IIIA”. For CC1=C(/C=C/C(C)=C/C=C/C(C)=C/C(=O)O)C(C)(C)CCC1 [Tertinoin], the “Albumin Binding Location” value was “IIIA”.

Same assay, conditions: Table II, Phase II; refined coordinates; listed residues within 5 Å of bound ligand
With COc1ccc2cc(CC(=O)O)ccc2c1 [6-MNA] the “Binding site of the Drug-Albumin Complex” value was “Site IB, R114, L115, R117, M123, L135, Y138, L139, I142, H146,; also recorded: Site IIA-IIBR209, A210, A213, W214, D324, L327, G328, L331,; also recorded: Site IIIA, L387, I388, N391, C392, F403, L407, R410, Y411, K414,”. For CC[C@@]1(O)C(=O)OCc2c1cc1n(c2=O)Cc2cc3c([N+](=O)[O-])cccc3nc2-1 [9 Nitro-Camptothecin], the “Binding site of the Drug-Albumin Complex” value was “Site IB, L115, V116, R117, Y138, I142, H146, F149, L154, F157,”. In the case of CC(=O)Oc1ccccc1C(=O)O [Aspirin], the “Binding site of the Drug-Albumin Complex” value is reported as “Site IIIB, F509, I513, R521, K524, K525, A528, M548, F551, A552,”. For O=C(O)CCNC(=O)c1ccc(/N=N/c2ccc(O)c(C(=O)O)c2)cc1 [Balsalazide], the “Binding site of the Drug-Albumin Complex” value was “Site IIA-IIIB, S401, K402, N405, A406, L407, V409, R410, K413,”. In the case of CC[C@@]1(O)C(=O)OCc2c1cc1n(c2=O)Cc2cc3ccccc3nc2-1 [Camptothecin], the “Binding site of the Drug-Albumin Complex” value is reported as “Site IB, L115, V116, R117, M123, Y138, I142, H146, F149, L154,”. In the case of CCOc1nc2cccc(C(=O)OC(C)OC(=O)OC3CCCCC3)c2n1Cc1ccc(-c2ccccc2-c2nn[nH]n2)cc1 (stereo not shown) [Candesartan Cilexitil], the “Binding site of the Drug-Albumin Complex” value is reported as “Site II-III, K195, L198, K199, S202, L203, F206, G207, A210, F211,; also recorded: Site IIIA, P384, L387, I388, N391, C392, F395, F403, L407, Y411,; also recorded: Site IIIA-IIIB, L398, Y401, K402, N405, A406, V409, R410, L529,”. With COc1ccccc1OCCNCC(O)COc1cccc2[nH]c3ccccc3c12 (stereo not shown) [Carvedilol] the “Binding site of the Drug-Albumin Complex” value was “Site IIIA, P384, L387, I388, N391, F403, L407, R410, Y411, K414,”. For CCc1cccc2c3c([nH]c12)C(CC)(CC(=O)O)OCC3 (stereo not shown) [Etodolac], the “Binding site of the Drug-Albumin Complex” value was “Site IB, L115, Y138, E141, I142, R145, H146, Y161, L182, L185,; also recorded: Site IIIA, P384, L387, I388, N391, F403, L407, R410, Y411, K414,”. In the case of CC(C(=O)O)c1ccc(-c2ccccc2)c(F)c1 (stereo not shown) [Flurbiprofen], the “Binding site of the Drug-Albumin Complex” value is reported as “Site IIIA, L387, I388, N391, C392, F395, F403, L407, R410, Y411,”. In the case of Cc1ccc(C)c(OCCCC(C)(C)C(=O)O)c1 [Gemfrirozil], the “Binding site of the Drug-Albumin Complex” value is reported as “Site IB, L115, V116, R117, F134, L135, Y138, L139, I142, R145,; also recorded: Site IIIA, L387, R410, Y411, K414, V415, V418, L423, V426, S427,”. In the case of COc1ccc(Cl)cc1C(=O)NCCc1ccc(S(=O)(=O)NC(=O)NC2CCCCC2)cc1 [Glyburide], the “Binding site of the Drug-Albumin Complex” value is reported as “Site IB, L115, V116, R117, P118, M123, A126, F134, K137, Y138,”. In the case of CC(=O)[C@]1(O)Cc2c(O)c3c(c(O)c2[C@@H](O[C@H]2C[C@H](N)[C@H](O)[C@H](C)O2)C1)C(=O)c1ccccc1C3=O [Idarubicin], the “Binding site of the Drug-Albumin Complex” value is reported as “Site IB, F036, F037, L115, V116, R117, P118, V122, M123, A126,”. With O=C(c1ccccc1)c1ccc2n1CCC2C(=O)O (stereo not shown) [Ketorolac] the “Binding site of the Drug-Albumin Complex” value was “Site IB, L115, R117, Y138, I142, H146, F157, Y161, L182, D183,; also recorded: Site IIIA, L387, I388, N391, C392, F403, L407, R410, Y411, K414,”. In the case of Cc1ccc(Cl)c(Nc2ccccc2C(=O)O)c1Cl [Meclofenamic Acid], the “Binding site of the Drug-Albumin Complex” value is reported as “Site IIIA, P384, L387, I388, N391, C392, F403, L407, R410, Y411,”. For Cc1cccc(Nc2ccccc2C(=O)O)c1C [Mefenamic Acid], the “Binding site of the Drug-Albumin Complex” value was “Site IIIA, E383, P384, L387, N391, C392, F403, L407, R410, Y411,”. In the case of O=C(O)CCc1nc(-c2ccccc2)c(-c2ccccc2)o1 [Oxaprozin], the “Binding site of the Drug-Albumin Complex” value is reported as “Site IIIA, P384, L387, I388, N391, C392, F403, L407, R410, Y411,”. For CC1(C)S[C@@H]2[C@H](NC(=O)Cc3ccccc3)C(=O)N2[C@H]1C(=O)O [Penecillin G], the “Binding site of the Drug-Albumin Complex” value was “Site IIA, Y150, K195, K199, F211, W214, A215, R218, L219, R222,”. With CN1C(C(=O)Nc2ccccn2)=C(O)c2ccccc2S1(=O)=O [Piroxicam] the “Binding site of the Drug-Albumin Complex” value was “Site IIA, K195, Q196, L198, K199, F211, W214, A215, R218, L219,”. In the case of CC(CN1c2ccccc2Sc2ccccc21)N(C)C (stereo not shown) [Promethazine], the “Binding site of the Drug-Albumin Complex” value is reported as “Site IIB, D308, F309, N318, E321, A322, V325, F326, N329”. In the case of CCC(=O)O[C@](Cc1ccccc1)(c1ccccc1)[C@H](C)CN(C)C [Propoxyphene], the “Binding site of the Drug-Albumin Complex” value is reported as “Site IIIB, F502, F507, F509, A528, E531, L532, H535, V547, D550,”. For O=C(c1ccccc1)c1ccc2n1CC[C@H]2C(=O)O [R-Ketorolac], the “Binding site of the Drug-Albumin Complex” value was “Site IB, R117, Y138, I142, H146, F149, L154, F157, Y161, L182,”. With Cc1nc2n(c(=O)c1CCN1CCC(c3noc4cc(F)ccc34)CC1)CCCC2 [Risperidone] the “Binding site of the Drug-Albumin Complex” value was “Site IIIA, L387, I388, N391, C392, F403, L407, R410, Y411, K414,”. With CCc1cccc2c3c([nH]c12)[C@](CC)(CC(=O)O)OCC3 [S-Etodolac] the “Binding site of the Drug-Albumin Complex” value was “Site IIIA, P384, L387, I388, N391, F403, L407, R410, Y411, K414,”. For O=C(c1ccccc1)c1ccc2n1CC[C@@H]2C(=O)O [S-Ketorolac], the “Binding site of the Drug-Albumin Complex” value was “Site IIIB, F507, F509, I513, L516, R521, K524, K525, A528, L532,”. In the case of O=C(Oc1ccccc1C(=O)O)c1ccccc1O [Salsalate], the “Binding site of the Drug-Albumin Complex” value is reported as “Site IIIB, F509, I513, R521, K524, K525, A528, M548, F551, A552,”. With CC1(C)S[C@@H]2[C@H](NC(=O)C(c3ccccc3)S(=O)(=O)O)C(=O)N2[C@H]1C(=O)O (stereo partly shown) [Sulbenicillin] the “Binding site of the Drug-Albumin Complex” value was “Site IIA, Y150, K195, K199, W214, R218, L219, R222, L238, H242,”. With CCCc1nc2c(C)cc(-c3nc4ccccc4n3C)cc2n1Cc1ccc(-c2ccccc2C(=O)O)cc1 [Telmisartan] the “Binding site of the Drug-Albumin Complex” value was “Site IB, L115, V116, R117, P118, M123, F134, K137, Y138, E141,”. For COc1cc([C@@H]2c3cc4c(cc3[C@@H](O[C@@H]3O[C@@H]5CO[C@@H](c6cccs6)O[C@H]5[C@H](O)[C@H]3O)[C@H]3COC(=O)[C@H]23)OCO4)cc(OC)c1O [Teniposide], the “Binding site of the Drug-Albumin Complex” value was “Site IB, L115, V116, R117, P118, A126, F134, K137, Y138, E141,”. In the case of COc1cc(C(=O)NS(=O)(=O)c2ccccc2C)ccc1Cc1cn(C)c2ccc(NC(=O)OC3CCCC3)cc12 [Zafirlukast], the “Binding site of the Drug-Albumin Complex” value is reported as “Site IIA, Y150, E153, K195, L198, K199, S202, F211, W214, A215,”. For Hemin, the “Binding site of the Drug-Albumin Complex” value was “Site IB, R114, L115, V116, R117, P118, M123, F134, L135, Y138,”.

Target: T1, human serum albumin
Test: not given
Settings: prior knowledge on non-drugs such as gases; cited from earlier work
For FC(F)(F)C(Cl)Br (stereo not shown) [halothane], the “HSA site with binding affinity, previously known” value is given as “IIA-IIB”.
